According to US10696686B2, “Herbicidally active (alkynyl-phenyl)-substituted cyclic dione compounds and derivatives thereof” (Syngenta Limited, priority 2013, dated 2020):

Experiments:
Type in all cases: in vivo
[1] = tested on: Triticum aestivum (TRZAW, winter wheat); assay: Biological Example 2 glasshouse assay (IF50 formulation, X-77), post-emergence; conditions: for percentage phytotoxicity score TRZAW: 14 or 15 DAA
Protocol: (§1) Seeds of a variety of monocotyledonous and dicotyledonous test plants are sown in standard soil in pots. The plants are cultivated for one day (for pre-emergence) or for about 12 days (range=10-13 days) (for post-emergence) under controlled conditions in a glasshouse (warm climate species at 24/18° C., cool climate species at 20/16° C., both at day/night; 16 hours light; 65% humidity). An “instant formulation”, known as the “IF50”, containing 50 g/litre (i.e. 5% w/v) of the “technical” (i.e. unformulated) active ingredient is prepared by dissolving the active ingredient in a mixture of organic solvents and emulsifier, details of which are provided in the Table below. This IF50 is then mixed with a small, variable amount of acetone to aid dissolution, before addition of a 0.2% v/v aqueous solution of the adjuvant X-77 (which is a mixture of alkyl aryl polyoxyethylene glycols and free fatty acids in isopropanol, CAS Registry number 11097-66-8), as the aqueous diluent, to form an aqueous spray solution which contains a predetermined concentration of the active ingredient (which varies depending on the application rate of the active ingredient to the plants) and 0.2% v/v of the adjuvant X-77. This aqueous spray solution is then sprayed onto the plants, after one day's cultivation (for pre-emergence) or after about 12 days' cultivation (for post-emergence).
(§2) The test plants are then grown on, in a glasshouse (greenhouse) under controlled conditions (at either 24/18° C. or 20/16° C. (day/night) as mentioned above; 16 hours light; 65% humidity) and are watered twice daily. Either 14 or 15 days after application of the herbicide (14 or 15 DAA) (for post-emergence), or 20 days after application of the herbicide (20 DAA) (for pre-emergence), the test plants are evaluated visually, and an assessed percentage phytotoxicity score is given for each herbicidal application on each plant species (where 100%=total damage to plant; 0%=no damage to plant). Some of the typical test plants are as follows: Cool climate crop plants: Triticum aestivum (TRZAW, winter wheat), Brassica napus (BRSNN, rape, also called oilseed rape or rapeseed), Beta vulgaris (BEAVA, sugarbeet). Warm climate crop plants: Glycine max (GLXMA, soybean). Cool climate (“cool season”) grassy monocotyledonous weeds: Alopecurus myosuroides (ALOMY), Avena fatua (AVEFA), Lolium perenne (LOLPE), Poa annua (POAAN), Bromus tectorum (BROTE). Warm climate (“warm season”) grassy monocotyledonous weeds: Setaria faberi (SETFA), SORVU (Sorghum bicolor (L.) Moench ssp. Bicolor, or Sorghum vulgare Pers.), Digitaria sanguinalis (DIGSA), Echinochloa crus-galli (ECHCG), Brachiaria plantaginea (BRAPL), Zea mays (ZEAMX, corn, maize, e.g. volunteer corn), Panicum miliaceum (PANMI).

[2] = tested on: Digitaria sanguinalis (DIGSA); assay: as above; conditions: 14 or 15 DAA
Protocol: as §1, §2

[3] = tested on: Zea mays (ZEAMX, corn, maize, e.g. volunteer corn); assay: as above; conditions: 14 or 15 DAA
Protocol: as §1, §2

[4] = tested on: Beta vulgaris (BEAVA, sugarbeet); assay: as above; conditions: for percentage phytotoxicity score BEAVA: post-emergence, 14 or 15 DAA
Protocol: as §1, §2

[5] = tested on: Glycine max (GLXMA, soybean); assay: as above; conditions: for percentage phytotoxicity score GLXMA: post-emergence, 14 or 15 DAA
Protocol: as §1, §2

[6] = tested on: Avena fatua (AVEFA); assay: as above; conditions: 14 or 15 DAA
Protocol: as §1, §2

[7] = tested on: Setaria faberi (SETFA); assay: as above; conditions: 14 or 15 DAA
Protocol: as §1, §2

[8] = tested on: Brachiaria plantaginea (BRAPL); assay: as above; conditions: 14 or 15 DAA
Protocol: as §1, §2

[9] = tested on: Lolium perenne (LOLPE); assay: as above; conditions: 14 or 15 DAA
Protocol: as §1, §2

[10] = tested on: Echinochloa crus-galli (ECHCG); assay: as above; conditions: 14 or 15 DAA
Protocol: as §1, §2

[11] = tested on: SORVU (Sorghum bicolor (L.) Moench ssp. Bicolor, or Sorghum vulgare Pers.); assay: as above; conditions: 14 or 15 DAA
Protocol: as §1, §2

[12] = tested on: Alopecurus myosuroides (ALOMY); assay: as above; conditions: 14 or 15 DAA
Protocol: as §1, §2

[13] = tested on: Brassica napus (BRSNN, rape); assay: as above; conditions: 14 or 15 DAA
Protocol: as §1, §2

[14] = tested on: Amaranthus retroflexus (AMARE); assay: Biological Example 1B glasshouse assay, pre-emergence application; conditions: 250 g/ha, 13 days after application
Protocol: (§3) Seeds of a variety of test plant species were sown in standard soil ** in pots. After cultivation for one day (pre-emergence) or after 8 days cultivation (post-emergence) under controlled conditions in a glasshouse (at 24/16° C., day/night; 14 hours light; 65% humidity), the plants were sprayed with an aqueous spray solution derived from the formulation of the technical active ingredient (the test herbicide) in acetone/water (50:50) solution containing 0.5% Tween 20 (polyoxyethylene sorbitan monolaurate, CAS Reg. No. 9005-64-5). The test plants were then grown on under controlled conditions in a glasshouse (at 24/16° C., day/night; 14 hours light; 65% humidity) and watered twice daily. 13 Days after application of the test herbicide, for pre- and post-emergence, the test was evaluated visually for percentage phytotoxicity to each plant (where 100%=total damage to plant; 0%=no damage to plant). Generally, each test herbicide is only tested on 1 plant per plant species for each application rate tested and for each application timing. ** The “standard soil” in Biological Example 1 is usually a “sand” or “sandy loam” type of soil.
(§4) Dicotyledonous weeds: ABUTH=Abutilon theophrasti; AMARE=Amaranthus retroflexus. Grassy monocotyledonous weeds: SETFA=Setaria faberi; ALOMY=Alopecurus myosuroides; ECHCG=Echinochloa crus-galli; ZEAMX=Zea mays (corn, maize, e.g. volunteer corn). For Compound A16, the grassy monocotyledonous weed LOLPE (Lolium perenne) was used in the test insterad of ALOMY.

[15] = tested on: Echinochloa crus-galli (ECHCG); assay: as above; conditions: 250 g/ha, 13 days after application
Protocol: as §3, §4

[16] = tested on: Alopecurus myosuroides (ALOMY); assay: as above; conditions: 250 g/ha, 13 days after application
Protocol: as §3, §4

[17] = 125 g/ha (rate taken from row order)
[18] = 250 g/ha (rate taken from row order)
[19] = e.g. when applied at 30 g/ha post-emergence, see Biological Example 2

## C#CCC1CC(=O)C(c2c(F)cc(C#CC)cc2OC)C1=O (centres unmarked) [Compound A8, 2-(2-fluoro-6-methoxy-4-prop-1-ynyl-phenyl)-4-prop-2-ynyl-cyclopentane-1,3-dione]
[1]; 125 g/ha
  percentage phytotoxicity score TRZAW: 50%
[1]; 250 g/ha
  percentage phytotoxicity score TRZAW: 70%
[1]; relative to herbicidal activity against warm-climate grassy weeds, Biological Example 2
  phytotoxicity against wheat (in words): medium or reasonably low phytotoxicity
[2]; [17]
  percentage phytotoxicity score DIGSA: 100%
[2]; [18]
  percentage phytotoxicity score DIGSA: 100%
[3]; 125 g/ha
  percentage phytotoxicity score ZEAMX: 100%
[3]; 250 g/ha
  percentage phytotoxicity score ZEAMX: 100%
[4]; [19]
  phytotoxicity against sugarbeet (in words): low or reasonably low phytotoxicity
[4]; 125 g/ha
  percentage phytotoxicity score BEAVA: 10%
[4]; 250 g/ha
  percentage phytotoxicity score BEAVA: 10%
[5]; [19]
  phytotoxicity against soybean (in words): low or reasonably low phytotoxicity
[5]; 125 g/ha
  percentage phytotoxicity score GLXMA: 10%
[5]; 250 g/ha
  percentage phytotoxicity score GLXMA: 30%
[6]; [17]
  percentage phytotoxicity score AVEFA: 30%
[6]; [18]
  percentage phytotoxicity score AVEFA: 70%
[7]; [17]
  percentage phytotoxicity score SETFA: 90%
[7]; [18]
  percentage phytotoxicity score SETFA: 100%
[8]; [17]
  percentage phytotoxicity score BRAPL: 100%
[8]; [18]
  percentage phytotoxicity score BRAPL: 100%
[9]; [17]
  percentage phytotoxicity score LOLPE: 30%
[9]; [18]
  percentage phytotoxicity score LOLPE: 80%
[10]; [17]
  percentage phytotoxicity score ECHCG: 100%
[10]; [18]
  percentage phytotoxicity score ECHCG: 100%
[11]; [17]
  percentage phytotoxicity score SORVU: 100%
[11]; [18]
  percentage phytotoxicity score SORVU: 100%
[12]; 125 g/ha
  percentage phytotoxicity score ALOMY: 50%
[12]; 250 g/ha
  percentage phytotoxicity score ALOMY: 70%
[13]; 125 g/ha
  percentage phytotoxicity score BRSNN: 40%
[13]; 250 g/ha
  percentage phytotoxicity score BRSNN: 60%
[14]
  Percentage phytotoxicity AMARE: 0%
[15]
  Percentage phytotoxicity ECHCG: 100%
[16]
  Percentage phytotoxicity ALOMY: 90%
